The source of these data is US5475029A, “Farnesyl compounds as cholesterol lowering agents” (The Board of Trustees of the Leland Stanford Junior …, priority 1993, dated 1995).

The structures appear in SMILES notation.

This experiment has as its system HMGal. Briefly: HMGal degradation rate (pulse-chase). The format is cell-based. As to conditions: 10 μg/ml during chase; untreated 6.4 hours. How it is done:
Measurement of HMGal and HMG-CoA Reductase Degradation Rates Cells grown in 60×15 mm dishes were washed once with ice-cold PBS and starved for 1 hour in 1 ml of methionine-free MEM supplemented with 5% LPS, 250 μg/ml of active geneticin, 10 μM compactin, and 0.1 mM mevalonate. These cells were radio-labeled for 2 hours in 300 μl of the methionine-free starvation medium containing 100 μCi of Tran^35 S-label (>1,000 Ci/mmol). Cells were incubated in an MEM-based chase medium containing 2 mM methionine, 5% LPS, 250 μg/ml of active geneticin, 10 μM compactin, and 0.1 mM mevalonate. During the chase period, some plates also had either 20 mM mevalonate, 10 μg/ml farnesyl acetate or 10 μg/ml ethyl farnesyl ether added to them as indicated in the figure legend. Following the chase, cells were washed, lysed and the HMGal and HMG-CoA reductase proteins were immunoprecipitated, subjected to SDS-PAGE and quantified.
In order to test whether the farnesyl compounds impact degradation, the rates of degradation for HMGal, HMG-CoA reductase, and total cellular protein were measured in the presence and absence of 10 μg/ml farnesyl acetate and ethyl farnesyl ether.

Turning to `CC(=O)OCC=C(C)CCC=C(C)CCC=C(C)C` [farnesyl acetate], the “half-life of HMGal” value turned out to be 3.9 h and the “reduction of the half-life of HMGal” value is recorded as 40%.
